# Non-standard residues stand in square brackets, D forms with d. Residues, ends and D or L forms follow the SMILES beside them. 1Nal = N[C@@H](Cc1cccc2ccccc12)C(=O)O; Nle = CCCC[C@H](N)C(=O)O; Aib = CC(C)(N)C(=O)O
# Target: T1, RXFP1 (Homo sapiens, UniProt Q9HBX9)
# T1 sequence (Q9HBX9 1-757): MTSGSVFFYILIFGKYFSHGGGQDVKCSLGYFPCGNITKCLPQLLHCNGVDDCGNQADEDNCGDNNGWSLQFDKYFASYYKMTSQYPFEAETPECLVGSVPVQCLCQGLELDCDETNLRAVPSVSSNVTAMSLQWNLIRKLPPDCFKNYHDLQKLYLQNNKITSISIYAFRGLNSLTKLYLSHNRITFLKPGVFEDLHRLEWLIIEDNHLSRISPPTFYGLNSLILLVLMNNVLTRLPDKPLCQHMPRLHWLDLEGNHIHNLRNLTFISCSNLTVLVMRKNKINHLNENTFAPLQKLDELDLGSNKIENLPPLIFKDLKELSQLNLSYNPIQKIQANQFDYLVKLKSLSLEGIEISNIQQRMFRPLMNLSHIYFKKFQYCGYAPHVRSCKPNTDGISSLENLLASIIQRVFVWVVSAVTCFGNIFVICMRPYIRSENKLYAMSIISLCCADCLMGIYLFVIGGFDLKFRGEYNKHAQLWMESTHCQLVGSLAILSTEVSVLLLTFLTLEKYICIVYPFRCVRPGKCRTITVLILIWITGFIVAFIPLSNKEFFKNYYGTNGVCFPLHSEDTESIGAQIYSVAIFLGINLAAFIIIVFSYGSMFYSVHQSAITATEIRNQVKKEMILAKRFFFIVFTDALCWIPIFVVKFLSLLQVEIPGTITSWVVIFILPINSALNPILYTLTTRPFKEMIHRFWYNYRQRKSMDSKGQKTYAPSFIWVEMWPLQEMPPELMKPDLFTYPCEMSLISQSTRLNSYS
# Test: OVCAR5 cAMP assay (RXFP1 agonist activity, HTRF)
# Details: OVCAR-5, read-out: cAMP assay in OVCAR 5 cells Emax, maximal intracellular cAMP relative to H2-relaxin in the same test occasion
row,Emax [%],SMILES
1,97,CCCC[C@H](NC(=O)CNC(=O)[C@H](CCC(=O)O)NC(=O)C(C)(C)NC(=O)C(C)(C)NC(=O)[C@@H](NC(=O)[C@H](CCC(N)=O)NC(=O)[C@H](C)NC(=O)[C@H](CCCNC(=N)N)NC(=O)[C@@H](NC(=O)[C@H](CCCCN)NC(=O)[C@H](CCC(=O)O)NC(=O)[C@H](CCCNC(=N)N)NC(=O)CNC(=O)[C@H](CCC(=O)O)NC(=O)[C@H](CC(C)C)NC(C)=O)C(C)C)[C@@H](C)CC)C(=O)N[C@@H](CO)C(=O)N[C@H](C(=O)N[C@@H](Cc1c[nH]c2ccccc12)C(=O)N[C@@H](CO)C(=O)N[C@@H](CCCCN)C(=O)N[C@@H](CCCNC(=N)N)C(=O)N[C@@H](CCCCN)C(=O)N[C@@H](CCCCN)C(N)=O)[C@@H](C)O [compound 13] (Ac-LEGREKVRAQI[Aib][Aib]EG[Nle]STWSKRKK-NH2)
2,106,CCCC[C@H](NC(=O)CNC(=O)[C@H](CCC(=O)O)NC(=O)C(C)(C)NC(=O)C(C)(C)NC(=O)[C@@H](NC(=O)[C@H](CCC(N)=O)NC(=O)[C@H](C)NC(=O)[C@H](CCCNC(=N)N)NC(=O)[C@@H](NC(=O)[C@H](CCCCN)NC(=O)[C@H](CCC(=O)O)NC(=O)[C@H](CCCNC(=N)N)NC(=O)CNC(=O)[C@H](CCC(=O)O)NC(=O)[C@H](CC(C)C)NC(C)=O)C(C)C)[C@@H](C)CC)C(=O)N[C@@H](CO)C(=O)N[C@@H](CCCCN)C(=O)N[C@@H](Cc1cccc2ccccc12)C(=O)N[C@@H](CO)C(=O)N[C@@H](CCCCN)C(=O)N[C@@H](CCCNC(=N)N)C(=O)N[C@@H](CCCCN)C(=O)N[C@@H](CCCCN)C(N)=O [compound 14] (Ac-LEGREKVRAQI[Aib][Aib]EG[Nle]SK[1Nal]SKRKK-NH2)
3,104,CCCC[C@H](NC(=O)CNC(=O)[C@H](CCC(=O)O)NC(=O)C(C)(C)NC(=O)C(C)(C)NC(=O)[C@@H](NC(=O)[C@H](CCC(N)=O)NC(=O)[C@H](C)NC(=O)[C@H](CCCNC(=N)N)NC(=O)[C@@H](NC(=O)[C@H](CCCCN)NC(=O)[C@H](CCC(=O)O)NC(=O)[C@H](CCCNC(=N)N)NC(=O)CNC(=O)[C@H](CCC(=O)O)NC(=O)[C@H](CC(C)C)NC(C)=O)C(C)C)[C@@H](C)CC)C(=O)N[C@@H](CO)C(=O)N[C@H](C(=O)N[C@@H](Cc1cccc2ccccc12)C(=O)N[C@@H](CO)C(=O)N[C@@H](CCCCN)C(=O)N[C@@H](CCCNC(=N)N)C(=O)N[C@@H](CCCCN)C(=O)N[C@@H](CCCCN)C(N)=O)[C@@H](C)O [compound 15] (Ac-LEGREKVRAQI[Aib][Aib]EG[Nle]ST[1Nal]SKRKK-NH2)

# Further lines, the compound ahead of its results:
row,SMILES,Emax [%]
1,CC[C@H](C)[C@H](NC(=O)[C@H](CCC(N)=O)NC(=O)[C@H](C)NC(=O)[C@H](CCCNC(=N)N)NC(=O)[C@@H](NC(=O)[C@H](CCCCN)NC(=O)[C@H](CCC(=O)O)NC(=O)[C@H](CCCNC(=N)N)NC(=O)CNC(=O)[C@H](CCC(=O)O)NC(=O)[C@@H](N)CC(C)C)C(C)C)C(=O)NC(C)(C)C(=O)N[C@H](C(=O)N[C@@H](CCC(=O)O)C(=O)NCC(=O)N[C@@H](CCSC)C(=O)N[C@@H](CO)C(=O)N[C@@H](CCCCN)C(=O)N[C@@H](Cc1c[nH]c2ccccc12)C(=O)N[C@@H](CO)C(=O)N[C@@H](CCCCN)C(=O)N[C@@H](CCCNC(=N)N)C(=O)N[C@@H](CCCCN)C(=O)N[C@@H](CCCCN)C(N)=O)[C@@H](C)CC [compound 6] (H-LEGREKVRAQI[Aib]IEGMSKWSKRKK-NH2),97
2,CC[C@H](C)[C@H](NC(=O)[C@H](CCC(N)=O)NC(=O)C(C)(C)NC(=O)[C@H](CCCNC(=N)N)NC(=O)[C@@H](NC(=O)[C@H](CCCCN)NC(=O)[C@H](CCC(=O)O)NC(=O)[C@H](CCCNC(=N)N)NC(=O)CNC(=O)[C@H](CCC(=O)O)NC(=O)[C@H](CC(C)C)NC(C)=O)C(C)C)C(=O)NC(C)(C)C(=O)N[C@H](C(=O)N[C@@H](CCC(=O)O)C(=O)NCC(=O)N[C@@H](CCSC)C(=O)N[C@@H](CO)C(=O)N[C@@H](CCCCN)C(=O)N[C@@H](Cc1c[nH]c2ccccc12)C(=O)N[C@@H](CO)C(=O)N[C@@H](CCCCN)C(=O)N[C@@H](CCCNC(=N)N)C(=O)N[C@@H](CCCCN)C(=O)N[C@@H](CCCCN)C(N)=O)[C@@H](C)CC [compound 7] (Ac-LEGREKVR[Aib]QI[Aib]IEGMSKWSKRKK-NH2),101
3,CCCC[C@H](NC(=O)CNC(=O)[C@H](CCC(=O)O)NC(=O)[C@@H](NC(=O)C(C)(C)NC(=O)[C@@H](NC(=O)[C@H](CCC(N)=O)NC(=O)[C@H](C)NC(=O)[C@H](CCCNC(=N)N)NC(=O)[C@@H](NC(=O)[C@H](CCCCN)NC(=O)[C@H](CCC(=O)O)NC(=O)[C@H](CCCNC(=N)N)NC(=O)CNC(=O)[C@H](CCC(=O)O)NC(=O)[C@H](CC(C)C)NC(C)=O)C(C)C)[C@@H](C)CC)[C@@H](C)CC)C(=O)N[C@@H](CO)C(=O)N[C@@H](CCCCN)C(=O)N[C@@H](Cc1c[nH]c2ccccc12)C(=O)N[C@@H](CO)C(=O)N[C@@H](CCCCN)C(=O)N[C@@H](CCCNC(=N)N)C(=O)N[C@@H](CCCCN)C(=O)N[C@@H](CCCCN)C(N)=O [compound 8] (Ac-LEGREKVRAQI[Aib]IEG[Nle]SKWSKRKK-NH2),103
4,CC[C@H](C)[C@H](NC(=O)[C@H](CCC(N)=O)NC(=O)[C@H](C)NC(=O)[C@H](CCCNC(=N)N)NC(=O)[C@@H](NC(=O)[C@H](CCCCN)NC(=O)[C@H](CCC(=O)O)NC(=O)[C@H](CCCNC(=N)N)NC(=O)CNC(=O)[C@H](CCC(=O)O)NC(=O)[C@H](CC(C)C)NC(C)=O)C(C)C)C(=O)NC(C)(C)C(=O)N[C@H](C(=O)N[C@@H](CCC(=O)O)C(=O)NCC(=O)N[C@@H](CCSC)C(=O)N[C@@H](CO)C(=O)N[C@@H](CCCCN)C(=O)N[C@@H](Cc1cccc2ccccc12)C(=O)N[C@@H](CO)C(=O)N[C@@H](CCCCN)C(=O)N[C@@H](CCCNC(=N)N)C(=O)N[C@@H](CCCCN)C(=O)N[C@@H](CCCCN)C(N)=O)[C@@H](C)CC [compound 9] (Ac-LEGREKVRAQI[Aib]IEGMSK[1Nal]SKRKK-NH2),100
5,CC[C@H](C)[C@H](NC(=O)[C@H](CCC(N)=O)NC(=O)[C@H](C)NC(=O)[C@H](CCCNC(=N)N)NC(=O)[C@@H](NC(=O)[C@H](CCCCN)NC(=O)[C@H](CCC(=O)O)NC(=O)[C@H](CCCNC(=N)N)NC(=O)CNC(=O)[C@H](CCC(=O)O)NC(=O)[C@H](CC(C)C)NC(C)=O)C(C)C)C(=O)NC(C)(C)C(=O)NC(C)(C)C(=O)N[C@@H](CCC(=O)O)C(=O)NCC(=O)N[C@@H](CCSC)C(=O)N[C@@H](CO)C(=O)N[C@H](C(=O)N[C@@H](Cc1c[nH]c2ccccc12)C(=O)N[C@@H](CO)C(=O)N[C@@H](CCCCN)C(=O)N[C@@H](CCCNC(=N)N)C(=O)N[C@@H](CCCCN)C(=O)N[C@@H](CCCCN)C(N)=O)[C@@H](C)O [compound 10] (Ac-LEGREKVRAQI[Aib][Aib]EGMSTWSKRKK-NH2),103
6,CC[C@H](C)[C@H](NC(=O)[C@H](CCC(N)=O)NC(=O)[C@H](C)NC(=O)[C@H](CCCNC(=N)N)NC(=O)[C@@H](NC(=O)[C@H](CCCCN)NC(=O)[C@H](CCC(=O)O)NC(=O)[C@H](CCCNC(=N)N)NC(=O)CNC(=O)[C@H](CCC(=O)O)NC(=O)C(C)(C)NC(C)=O)C(C)C)C(=O)NC(C)(C)C(=O)NC(C)(C)C(=O)N[C@@H](CCC(=O)O)C(=O)NCC(=O)N[C@@H](CCSC)C(=O)N[C@@H](CO)C(=O)N[C@@H](CCCCN)C(=O)N[C@@H](Cc1c[nH]c2ccccc12)C(=O)N[C@@H](CO)C(=O)N[C@@H](CCCCN)C(=O)N[C@@H](CCCNC(=N)N)C(=O)N[C@@H](CCCCN)C(=O)N[C@@H](CCCCN)C(N)=O [compound 11] (Ac-[Aib]EGREKVRAQI[Aib][Aib]EGMSKWSKRKK-NH2),102
7,CC[C@H](C)[C@H](NC(=O)[C@H](CCC(N)=O)NC(=O)[C@H](C)NC(=O)[C@H](CCCNC(=N)N)NC(=O)[C@@H](NC(=O)[C@H](CCCCN)NC(=O)[C@H](CCC(=O)O)NC(=O)[C@H](CCCNC(=N)N)NC(=O)CNC(=O)[C@H](CCC(=O)O)NC(=O)C(C)(C)N)C(C)C)C(=O)NC(C)(C)C(=O)NC(C)(C)C(=O)N[C@@H](CCC(=O)O)C(=O)NCC(=O)N[C@@H](CCSC)C(=O)N[C@@H](CO)C(=O)N[C@@H](CCCCN)C(=O)N[C@@H](Cc1c[nH]c2ccccc12)C(=O)N[C@@H](CO)C(=O)N[C@@H](CCCCN)C(=O)N[C@@H](CCCNC(=N)N)C(=O)N[C@@H](CCCCN)C(=O)N[C@@H](CCCCN)C(N)=O [compound 12] (H-[Aib]EGREKVRAQI[Aib][Aib]EGMSKWSKRKK-NH2),99

# Same assay, conditions: cAMP assay in OVCAR 5 cells EC50 (nM), OVCAR5 cells expressing endogenous RXFP1; cAMP by HTRF; 30 min at 37° C.; 1 mM IBMX
row,SMILES,EC50 [nM]
1,CCCC[C@H](NC(=O)CNC(=O)[C@H](CCC(=O)O)NC(=O)C(C)(C)NC(=O)C(C)(C)NC(=O)[C@@H](NC(=O)[C@H](CCC(N)=O)NC(=O)[C@H](C)NC(=O)[C@H](CCCNC(=N)N)NC(=O)[C@@H](NC(=O)[C@H](CCCCN)NC(=O)[C@H](CCC(=O)O)NC(=O)[C@H](CCCNC(=N)N)NC(=O)CNC(=O)[C@H](CCC(=O)O)NC(=O)[C@H](CC(C)C)NC(C)=O)C(C)C)[C@@H](C)CC)C(=O)N[C@@H](CO)C(=O)N[C@@H](CCCCN)C(=O)N[C@@H](Cc1cccc2ccccc12)C(=O)N[C@@H](CO)C(=O)N[C@@H](CCCCN)C(=O)N[C@@H](CCCNC(=N)N)C(=O)N[C@@H](CCCCN)C(=O)N[C@@H](CCCCN)C(N)=O [compound 14] (Ac-LEGREKVRAQI[Aib][Aib]EG[Nle]SK[1Nal]SKRKK-NH2),32.8
2,CCCC[C@H](NC(=O)CNC(=O)[C@H](CCC(=O)O)NC(=O)C(C)(C)NC(=O)C(C)(C)NC(=O)[C@@H](NC(=O)[C@H](CCC(N)=O)NC(=O)[C@H](C)NC(=O)[C@H](CCCNC(=N)N)NC(=O)[C@@H](NC(=O)[C@H](CCCCN)NC(=O)[C@H](CCC(=O)O)NC(=O)[C@H](CCCNC(=N)N)NC(=O)CNC(=O)[C@H](CCC(=O)O)NC(=O)[C@H](CC(C)C)NC(C)=O)C(C)C)[C@@H](C)CC)C(=O)N[C@@H](CO)C(=O)N[C@H](C(=O)N[C@@H](Cc1cccc2ccccc12)C(=O)N[C@@H](CO)C(=O)N[C@@H](CCCCN)C(=O)N[C@@H](CCCNC(=N)N)C(=O)N[C@@H](CCCCN)C(=O)N[C@@H](CCCCN)C(N)=O)[C@@H](C)O [compound 15] (Ac-LEGREKVRAQI[Aib][Aib]EG[Nle]ST[1Nal]SKRKK-NH2),24.4
